Assay results: patent US8263530B2, “Agrochemical formulations containing microcapsules” (priority 2006, dated 2012)

Test: Storage stability: content of active ingredient in water dispersible granules
Format: physicochemical
Description: A test on the storage stability was performed with the following results:
Comparison of stability of fluoroxypyr and metsulfuon-methyl when a WG granulation is made according to U.S. Pat. No. 5,688,743 (Dow) and the encapsulation step has been omitted and replaced by a joint milling of the corresponding amount of fluoroxypyr and metsulfuron-methyl: […]

[1] = FXY + MET 26 WG (Fluroxypyr 250 g/kg + Metsulfuron 10 g/kg WG, microencapsulated fluroxypyr), test item FXY-MSF_0604, column without storage
[2] = FXY + MET 26 WG (microencapsulated fluroxypyr), GLASS, 0 ± 2° C., after storage
[3] = FXY + MET 26 WG (microencapsulated fluroxypyr), GLASS, 54 ± 2° C., after storage
[4] = FXY + MET 26 WG (microencapsulated fluroxypyr), PLASTIC, 0 ± 2° C., after storage
[5] = FXY + MET 26 WG (microencapsulated fluroxypyr), PLASTIC, 54 ± 2° C., after storage
[6] = Fluroxypyr 250 g/kg + Metsulfuron 10 g/kg WG WITHOUT microencapsulation of fluroxypyr (joint milling, per US 5,688,743), test item FXY-MSF_060/, column without storage
[7] = WG WITHOUT microencapsulation of fluroxypyr, GLASS, 0 ± 2° C., after storage
[8] = WG WITHOUT microencapsulation of fluroxypyr, GLASS, 54 ± 2° C., after storage
[9] = WG WITHOUT microencapsulation of fluroxypyr, PLASTIC, 0 ± 2° C., after storage
[10] = WG WITHOUT microencapsulation of fluroxypyr, PLASTIC, 54 ± 2° C., after storage

Structure (SMILES) | Content of active ingredient [1] | Content of active ingredient [2] | Content of active ingredient [3] | Content of active ingredient [4] | Content of active ingredient [5] | Content of active ingredient [6] | Content of active ingredient [7] | Content of active ingredient [8] | Content of active ingredient [9] | Content of active ingredient [10]
Nc1c(Cl)c(F)nc(OCC(=O)O)c1Cl [Fluroxypyr] | 39.37 wt-% | 38.65 wt-% | 38.57 wt-% | 38.51 wt-% | 38.35 wt-% | 39.41 wt-% | 34.44 wt-% | 28.02 wt-% | 36.34 wt-% | 16.05 wt-%
COc1nc(C)nc(NC(=O)NS(=O)(=O)c2ccccc2C(=O)O)n1 [Metsulfuron] | 1.18 wt-% | 1.18 wt-% | 1.18 wt-% | 1.19 wt-% | 1.18 wt-% | 1.16 wt-% | 0.35 wt-% | 0.21 wt-% | 0.39 wt-% | 0.24 wt-%
